From US20100004257A1 (University of South Floria, priority 2007, published 2010) come the findings set out here.

Experiment [1] deals with pTyr416 Src (pSrc) family in H1975 cells. Nature of the experiment: Western analysis of Src phosphorylation status. Format: cell-based, Human. The conditions noted are these: 24 hours, dasatinib at 50 nmol/L.
In experiment [2] the test system is A549 cells. In words: Cell cycle profile and cyclin D/p27 Western analysis. The format is cell-based, Human. As to conditions: 24 hours, gefitinib 1 μmol/L, dasatinib 500 nmol/L.
For experiment [3], the system named is pTyr416 Src (pSrc) family in H1650 cells. In words: Western analysis of Src phosphorylation status. The format is cell-based, Human. As to conditions: H1650; increasing concentrations; 24 hours.
Experiment [4] deals with pAkt, pSTAT3, cleaved PARP in H1975 cells. Nature of the experiment: Western analysis of pAkt, pSTAT3 and cleaved PARP. Format: cell-based, Human. The conditions noted are these: 24 hours.
Experiment [5] deals with H358 cells. As to conditions: 24 hours, gefitinib 1 μmol/L, dasatinib 500 nmol/L, or the combination.
Experiment [6] has as its system pAkt, cleaved PARP in PC9 cells. Nature of the experiment: Western analysis of pAkt, pSTAT3 and cleaved PARP. The conditions noted are these: 24 hours. Format: cell-based, Human.
Experiment [7] has as its system pTyr416 Src (pSrc) family in PC9 cells. In words: Western analysis of Src phosphorylation status. The format is cell-based, Human. The conditions noted are these: 24 hours.
In experiment [8] the test system is pAkt, pSTAT3, cleaved PARP in H1650 cells. In words: Western analysis of pAkt, pSTAT3 and cleaved PARP. Format: cell-based, Human. As to conditions: 24 hours.

Turning to `COc1cc2ncnc(Nc3ccc(F)c(Cl)c3)c2cc1OCCCN1CCOCC1` [gefitinib], the pSrc entry in experiment [1] is “minimal changes”; in experiment [3] it was “incomplete”; in experiment [7] (250 nmol/L), “decrease in pSrc”; in experiment [7] (1 μmol/L), “incomplete”. Also, in experiment [2] (FIG. 12), the cell cycle profile result was “no effect”. In experiment [2] (FIG. 13), the “cyclin D3 and p27 proteins” value was “no changes”. Also, the PARP cleavage result in experiment [4] is reported as “no PARP cleavage”; in experiment [6] (gefitinib at 50 nmol/L, dasatinib at increasing concentrations), “induces PARP cleavage”; in experiment [8] (H1650 grown in 5% BCS), “degree of PARP cleavage is less”. In addition, the “pAkt or pSTAT3” value in experiment [4] is on record as “neither gefitinib nor dasatinib affects”. Moreover, the “G1 cell cycle arrest” value in experiment [5] is “G1 cell cycle arrest to the same extent”. In addition, in experiment [5], the “cyclins D1 and D3 and p27 protein levels” value was “reduced cyclins D1 and D3 and increased p27 protein levels”. In addition, the pAkt result is “completely inhibits pAkt” in experiment [6] (50 nmol/L); “minimal effect on pAkt” in experiment [8] (H1650 grown in 5% BCS, dasatinib at 50 nmol/L); “inhibit pAkt” in experiment [8] (H1650 in low serum with exogenous EGF, 50 nmol/L). Further, the pSTAT3 entry in experiment [8] (H1650, any growth conditions) is listed as “No effect”.
